Data on 13 compounds can be found in patent US8093406B2, “Cyclic sulfones with aminobenzyl substitution useful as BACE inhibitors” (Novartis AG, priority 2008, dated 2012).

Structures can show the parent of a compound that is named as a salt.

T1 sequence (P56817 46-457 limits assumed): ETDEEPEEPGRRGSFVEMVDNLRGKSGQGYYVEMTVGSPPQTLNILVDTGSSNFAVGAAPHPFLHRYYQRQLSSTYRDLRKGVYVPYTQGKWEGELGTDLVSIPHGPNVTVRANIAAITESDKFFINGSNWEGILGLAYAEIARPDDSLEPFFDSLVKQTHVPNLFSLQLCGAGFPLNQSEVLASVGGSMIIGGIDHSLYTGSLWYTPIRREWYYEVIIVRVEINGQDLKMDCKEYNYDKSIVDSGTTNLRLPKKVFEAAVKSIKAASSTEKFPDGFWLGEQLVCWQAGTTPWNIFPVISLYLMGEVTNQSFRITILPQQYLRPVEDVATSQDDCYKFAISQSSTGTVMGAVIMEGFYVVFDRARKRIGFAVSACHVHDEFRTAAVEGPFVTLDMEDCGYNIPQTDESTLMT

The experiment has as its target T1, Human BACE (Homo sapiens, UniProt P56817).
T1 construct: Recombinant BACE (extracellular domain, expressed in baculovirus and purified using standard methods); made in house
Put plainly: Test 1: Inhibition of Human BACE. Format: biochemical. To be noted: Test 1; recombinant BACE extracellular domain, acetate buffer pH 4.5, 1 hour incubation at room temperature, fluorescence-quenched APP-derived peptide substrate; read-out: Bace IC50. As for the experimental part:
Test 1: Inhibition of Human BACE
Recombinant BACE (extracellular domain, expressed in baculovirus and purified using standard methods) at 0.1 to 10 nM concentrations is incubated with the test compound at various concentrations for 1 hour at room temperature in 10 to 100 mM acetate buffer, pH 4.5, containing 0.1% CHAPS. […] IC50 values are calculated from percentage of inhibition of BACE-activity as a function of the test compound concentration.
As to `CN(C)CCNc1ccc(C[C@@H]2CS(=O)(=O)C[C@H](NCc3cccc(C(C)(C)C)c3)[C@H]2O)cc1F` (racemic) [Example 7, (3R*,4S*,5S*)-3-(3-tert-Butyl-benzylamino)-5-[4A2-dimethylamino-ethyl-amino)-3-fluoro-benzyl]-1,1-dioxo-hexahydro-1lambda*6*-thiopyran-4-ol], the IC50 was determined as 8400 nM.
As for `CC(C)(C)c1cccc(CNC2CS(=O)(=O)CC(Cc3ccc(N)c(C(=O)NCC(F)(F)F)c3)C2O)c1` (stereo not shown) [Example 23], the figure is 175 nM; as for `C[Si](C)(C)c1cccc(CN[C@H]2CS(=O)(=O)C[C@@H](Cc3cc(F)c(N)c(OC(C(F)(F)F)C(F)(F)F)c3)[C@@H]2O)c1` [Example 31, (3S,4S,5R)-3-[4-Amino-3-fluoro-5-(2,2,2-trifluoro-1-trifluoromethyl-ethoxy)-benzyl]-1,1-dioxo-5-(3-trimethylsilanyl-benzylamino)-hexahydro-1lambda*6*-thiopyran-4-ol], 22 nM; as for `CCCCNC(=O)c1cc(C[C@@H]2CS(=O)(=O)C[C@H](NCc3cccc(C(C)(C)C)c3)[C@H]2O)ccc1N` (racemic) [Example 18, 2-Amino-N-butyl-5-[3S*,4S*,5R*)-5-(3-tert-butyl-benzylamino)-4-hydroxy-1,1-dioxo-hexahydro-1lambda*6*-thiopyran-3-ylmethyl]-benzamide], 38 nM.
In the case of `CC(C)(C)c1cccc(CN[C@H]2CS(=O)(=O)C[C@@H](Cc3cc(F)c(NCCNC4CC4)c(Cl)c3)[C@@H]2O)c1` [Example 17, (3R,4S,5S)-3-(3-tert-Butyl-benzylamino)-5-[3-chloro-4-(2-cyclopropyl-amino-ethylamino)-5-fluoro-benzyl]-1,1-dioxo-hexahydro-1lambda*6*-thiopyran-4-ol hydrochloride], the IC50 is 1760 nM.
In the case of `CC(C)(C)c1cccc(CN[C@H]2CS(=O)(=O)C[C@@H](Cc3cc(F)c(NC(=O)CN4CCCCC4)c(Cl)c3)[C@@H]2O)c1` [Example 16] it was 34 nM; in that of `CCNCc1cc(C[C@@H]2CS(=O)(=O)C[C@H](NCc3cccc(C(C)(C)C)c3)[C@H]2O)cc(F)c1N` (relative stereo) [Example 3, (3S*,4S*,5R*)-3-(4-Amino-3-ethylaminomethyl-5-fluoro-benzyl)-5-(3-tert-butyl-benzylamino)-1,1-dioxo-hexahydro-1lambda*6*-thiopyran-4-ol hydrochloride], 1140 nM.
In the case of `CN(C)CC(=O)Nc1c(F)cc(C[C@@H]2CS(=O)(=O)C[C@H](NCc3cccc(C(C)(C)C)c3)[C@H]2O)cc1Cl` [Example 11, N-{4-[(3S,4S,5R)-5-(3-tert-Butyl-benzylamino)-4-hydroxy-1,1-dioxo-hexa-hydro-1lambda*6*-thiopyran-3-ylmethyl]-2-chloro-6-fluoro-phenyl}-2-dimethylamino-acetamide dihydrochloride] it was 74 nM; in that of `COC[C@@H](Oc1cc(C[C@@H]2C[S@@+]([O-])C[C@H](NCc3cc(OC)cc(C(C)C)c3)[C@H]2O)cc(F)c1N)C(F)(F)F` [Example 48, (1R,3S,4S,5R)-3-[4-Amino-3-fluoro-5-((R)-2,2,2-trifluoro-1-methoxymethyl-ethoxy)-benzyl]-5-(3-isopropyl-5-methoxy-benzylamino)-1-oxo-tetrahydro-thiopyran-4-ol], 26 nM; in that of `CC(C)(C)c1cccc(CN[C@H]2CS(=O)(=O)C[C@@H](Cc3cc(F)c(N)c(O[C@H](CN)C(F)(F)F)c3)[C@@H]2O)c1` [Example 39, (3S,4S,5R)-3-[4-Amino-3-((R)-1-aminomethyl-2,2,2-trifluoro-ethoxy)-5-fluoro-benzyl]-5-(3-tert-butyl-benzylamino)-1,1-dioxo-hexahydro-1lambda*6*-thiopyran-4-ol], 71 nM.
In the case of `CC(C)(C)c1cccc(CN[C@H]2CS(=O)(=O)C[C@@H](Cc3cc(F)c(NC(=O)CN4CCC4)c(OCC(F)(F)F)c3)[C@@H]2O)c1` [Example 28] it was 7 nM; in that of `CC(C)(C)c1cccc(CN[C@H]2CS(=O)(=O)C[C@@H](Cc3cc(F)c(N)c(N4CCCC4=O)c3)[C@@H]2O)c1` (relative stereo) [Example 4, 1-{2-Amino-5-[(3S*,4S*,5R*)-5-(3-tert-butyl-benzylamino)-4-hydroxy-1,1-dioxo-hexahydro-1lambda*6*-thiopyran-3-ylmethyl]-3-fluoro-phenyl}-pyrrolidin-2-one di-trifluoroacetate], 326 nM; in that of `C[C@H](Oc1cc(C[C@@H]2C[S@@+]([O-])C[C@H](NCc3ccc4c(c3)C(C)(C)OC4)[C@H]2O)cc(F)c1N)C(F)(F)F` [Example 52, (1R,3S,4S,5R)-3-[4-Amino-3-fluoro-5-((S)-2,2,2-trifluoro-1-methyl-ethoxy)-benzyl]-5-[(3,3-dimethyl-1,3-dihydro-isobenzofuran-5-ylmethyl)-amino]-1-oxo-hexa-hydro-1lambda*4*-thiopyran-4-ol], 117 nM.

By IC50 is commonly meant the concentration at which inhibition is half-maximal.
